Laboratory results taken from patent US5679640A, “Immunosuppressant peptides” (priority 1995, dated 1997).
Non-standard residues stand in square brackets, D forms with d. Residues, ends and D or L forms follow the SMILES beside them. Hyp = O=C(O)[C@@H]1C[C@@H](O)CN1; Cha = N[C@@H](CC1CCCCC1)C(=O)O

Tests used:
[1] = molecular target: T1, HLA-DR1 (Homo sapiens, UniProt P01903+P01911, A100R/D57E/F55L/F60I/F76Y/I96L/L162R/M171V/P40L/Q125E/R42F/V115G/Y59C); test: DR-peptide binding assay, DR1; settings: Table 3, binding affinity relative to HA 307-319 = 1
T1 construct: EBV-transformed homozygous cell lines were used as a source of DR molecules; endogenous in cells; host or cells: LG-2 (EBV-transformed human B cell line, DR1 homozygous); lysate purified on a monoclonal antibody LB3.1 column

[2] = molecular target: T2, DR4w4 (Homo sapiens, UniProt P01903+P01911, A100K/A169T/F76Y/I96L/K127E/L162R/M171V/N62H/P40V/Q125Y/R42H/S133A/S149N/S66Y/V115G/V209L/W38E); test: DR-peptide binding assay, DR4w4; settings: Table 3, binding affinity relative to HA 307-319 = 1
T2 construct: EBV-transformed homozygous cell lines were used as a source of DR molecules; endogenous in cells; host or cells: Preiss or Beh (EBV-transformed human B cell lines, DR4 Dw4 homozygous); lysate purified on a monoclonal antibody LB3.1 column

[3] = system: DR4w14; test: DR-peptide binding assay, DR4w14; parameters: species or system human; settings: Table 3, […]

Row | SMILES | MHC Binding Assay DR1 [1] | MHC Binding Assay DR4w4 [2] | MHC Binding Assay DR4w14 [3]
1 | C[C@H](NC(=O)[C@H](N)Cc1ccc(O)cc1)C(=O)N[C@@H](C)C(=O)N[C@@H](Cc1ccccc1)C(=O)N[C@@H](C)C(=O)N[C@@H](C)C(=O)N[C@@H](C)C(=O)N[C@@H](C)C(=O)N[C@H](C(=O)N[C@@H](C)C(=O)N[C@@H](CCCCN)C(=O)N[C@@H](C)C(=O)N[C@@H](C)C(=O)N[C@H](C)C(N)=O)[C@@H](C)O (H-[dY]AAFAAAATAKAA[dA]-NH2) | ++ (affinity greater than 1.0) | ++ (affinity greater than 1.0) | ++ (affinity greater than 1.0)
2 | CC(=O)N[C@H](Cc1ccc(O)cc1)C(=O)N[C@@H](C)C(=O)N[C@@H](C)C(=O)N[C@@H](CC1CCCCC1)C(=O)N[C@@H](C)C(=O)N[C@@H](C)C(=O)N[C@@H](C)C(=O)N[C@@H](C)C(=O)N[C@H](C(=O)N[C@@H](CC(C)C)C(=O)N[C@@H](CCCCN)C(=O)N[C@@H](C)C(=O)N[C@@H](C)C(=O)N[C@H](C)C(N)=O)[C@@H](C)O [Ac-yAAXAAAATLKAAa-NH2] | ++ (affinity greater than 1.0) | ++ (affinity greater than 1.0) | ++ (affinity greater than 1.0)
3 | C[C@H](NC(=O)[C@H](C)NC(=O)[C@H](Cc1ccccc1)NC(=O)[C@H](C)NC(=O)[C@@H](C)N)C(=O)N[C@@H](C)C(=O)N[C@@H](CCCCN)C(=O)N[C@H](C(=O)N[C@@H](C)C(=O)N[C@@H](C)C(=O)N[C@@H](C)C(=O)N[C@@H](Cc1ccccc1)C(=O)N[C@H](C)C(N)=O)[C@@H](C)O (H-[dA]AFAAAKTAAAF[dA]-NH2) | ++ (affinity greater than 1.0) | ++ (affinity greater than 1.0) | ++ (affinity greater than 1.0)
4 | CC(=O)N[C@H](C)C(=O)N[C@@H](C)C(=O)N[C@@H](CC1CCCCC1)C(=O)N[C@@H](C)C(=O)N[C@@H](C)C(=O)N[C@@H](C)C(=O)N[C@@H](C)C(=O)N[C@H](C(=O)N[C@@H](CC(C)C)C(=O)N[C@@H](CCCCN)C(=O)N[C@@H](C)C(=O)N[C@@H](C)C(=O)N[C@H](C)C(N)=O)[C@@H](C)O [Ac-aAXAAAATLKAAa-NH2] | ++ (affinity greater than 1.0) | ++ (affinity greater than 1.0) | ++ (affinity greater than 1.0)
5 | C[C@H](NC(=O)[C@H](C)NC(=O)[C@H](CC1CCCCC1)NC(=O)[C@H](C)NC(=O)[C@@H](C)N)C(=O)N[C@@H](C)C(=O)N[C@@H](C)C(=O)N1C[C@H](O)C[C@H]1C(=O)N[C@@H](CCCCN)C(=O)N[C@@H](C)C(=O)N[C@@H](C)C(=O)N[C@@H](C)C(=O)N[C@H](C)C(N)=O [aAXAAAABKAAAa-NH2] (H-[dA]A[Cha]AAAA[Hyp]KAAA[dA]-NH2) | ++ (affinity greater than 1.0) | ++ (affinity greater than 1.0) | ++ (affinity greater than 1.0)
6 | CC(C)C[C@H](NC(=O)[C@@H](NC(=O)[C@H](C)NC(=O)[C@H](C)NC(=O)[C@H](C)NC(=O)[C@H](C)NC(=O)[C@H](Cc1ccccc1)NC(=O)[C@H](C)NC(=O)[C@H](C)NC(=O)[C@H](N)Cc1ccc(O)cc1)[C@@H](C)O)C(=O)N[C@@H](CCCCN)C(=O)N[C@@H](C)C(=O)N[C@@H](C)C(=O)N[C@H](C)C(N)=O (H-[dY]AAFAAAATLKAA[dA]-NH2) | ++ (affinity greater than 1.0) | ++ (affinity greater than 1.0) | ++ (affinity greater than 1.0)
7 | CC(C)C[C@H](NC(=O)[C@@H](NC(=O)[C@H](C)NC(=O)[C@H](C)NC(=O)[C@H](C)NC(=O)[C@H](C)NC(=O)[C@H](CC1CCCCC1)NC(=O)[C@H](C)NC(=O)[C@@H](C)N)[C@@H](C)O)C(=O)N[C@@H](CCCCN)C(=O)N[C@@H](C)C(=O)N[C@@H](C)C(=O)N[C@H](C)C(N)=O [aAXAAAATLKAAa-NH2] | ++ (affinity greater than 1.0) | ++ (affinity greater than 1.0) | ++ (affinity greater than 1.0)
8 | CC(C)C[C@H](NC(=O)[C@@H](NC(=O)[C@@H](NC(=O)[C@H](CCC(N)=O)NC(=O)[C@H](CCCNC(=N)N)NC(=O)[C@H](CCC(N)=O)NC(=O)[C@H](Cc1ccccc1)NC(=O)[C@H](C)NC(=O)[C@H](C)NC(=O)[C@H](N)Cc1ccc(O)cc1)[C@@H](C)O)[C@@H](C)O)C(=O)N[C@@H](CCCCN)C(=O)N[C@@H](C)C(=O)N[C@@H](C)C(=O)N[C@H](C)C(=O)O (H-[dY]AAFQRQTTLKAA[dA]-OH) | ++ (affinity greater than 1.0) | ++ (affinity greater than 1.0) | ++ (affinity greater than 1.0)
9 | C[C@H](NC(=O)[C@H](C)NC(=O)[C@H](CCCCN)NC(=O)[C@H](C)NC(=O)[C@H](Cc1ccccc1)NC(=O)[C@H](C)NC(=O)[C@@H](C)N)C(=O)N[C@H](C(=O)N[C@@H](C)C(=O)N[C@@H](CCCCN)C(=O)N[C@@H](C)C(=O)N[C@@H](C)C(=O)N[C@H](C)C(N)=O)[C@@H](C)O (H-[dA]AFAKAATAKAA[dA]-NH2) | ++ (affinity greater than 1.0) | ++ (affinity greater than 1.0) | ++ (affinity greater than 1.0)

Continued, values first:

Row | MHC Binding Assay DR1 [1] | MHC Binding Assay DR4w4 [2] | MHC Binding Assay DR4w14 [3] | SMILES
10 | ++ (affinity greater than 1.0) | ++ (affinity greater than 1.0) | ++ (affinity greater than 1.0) | CC(C)C[C@H](NC(=O)[C@@H](NC(=O)[C@H](C)NC(=O)[C@H](C)NC(=O)[C@H](C)NC(=O)[C@H](C)NC(=O)[C@H](Cc1ccccc1)NC(=O)[C@H](C)NC(=O)[C@@H](C)N)[C@@H](C)O)C(=O)N[C@@H](CCCCN)C(=O)N[C@@H](C)C(=O)N[C@@H](C)C(=O)N[C@H](C)C(=O)O (H-[dA]AFAAAATLKAA[dA]-OH)
11 | ++ (affinity greater than 1.0) | ++ (affinity greater than 1.0) | ++ (affinity greater than 1.0) | CC(C)C[C@H](NC(=O)[C@@H](NC(=O)[C@H](CCCCN)NC(=O)[C@H](C)NC(=O)[C@H](C)NC(=O)[C@H](C)NC(=O)[C@H](Cc1ccccc1)NC(=O)[C@H](C)NC(=O)[C@@H](C)N)[C@@H](C)O)C(=O)N[C@@H](C)C(=O)N[C@@H](C)C(=O)N[C@@H](C)C(=O)N[C@H](C)C(N)=O (H-[dA]AFAAAKTLAAA[dA]-NH2)
12 | + (0.51 to 1.0) | ++ (affinity greater than 1.0) | ++ (affinity greater than 1.0) | CC(=O)N[C@H](Cc1ccc(O)cc1)C(=O)N[C@@H](C)C(=O)N[C@@H](CCCNC(=N)N)C(=O)N[C@@H](Cc1ccccc1)C(=O)N[C@@H](CCC(N)=O)C(=O)N[C@@H](CCCNC(=N)N)C(=O)N[C@@H](CCC(N)=O)C(=O)N[C@H](C(=O)N[C@H](C(=O)N[C@@H](CC(C)C)C(=O)N[C@@H](CCCCN)C(=O)N[C@@H](C)C(=O)N[C@@H](C)C(=O)N[C@H](C)C(=O)O)[C@@H](C)O)[C@@H](C)O (Ac-[dY]ARFQRQTTLKAA[dA]-OH)
13 | ++ (affinity greater than 1.0) | ++ (affinity greater than 1.0) | ++ (affinity greater than 1.0) | C[C@H](NC(=O)[C@H](C)NC(=O)[C@H](C)NC(=O)[C@H](Cc1ccccc1)NC(=O)[C@H](C)NC(=O)[C@@H](C)N)C(=O)N[C@@H](C)C(=O)N[C@H](C(=O)N[C@@H](C)C(=O)N[C@@H](CCCCN)C(=O)N[C@@H](C)C(=O)N[C@@H](C)C(=O)N[C@H](C)C(=O)O)[C@@H](C)O (H-[dA]AFAAAATAKAA[dA]-OH)
14 | ++ (affinity greater than 1.0) | ++ (affinity greater than 1.0) | ++ (affinity greater than 1.0) | C[C@H](NC(=O)[C@H](C)NC(=O)[C@H](C)NC(=O)[C@H](Cc1ccccc1)NC(=O)[C@H](C)NC(=O)[C@@H](C)N)C(=O)N[C@@H](C)C(=O)N[C@H](C(=O)N[C@@H](C)C(=O)N[C@@H](CCCCN)C(=O)N[C@@H](C)C(=O)N[C@@H](C)C(=O)N[C@H](C)C(N)=O)[C@@H](C)O (H-[dA]AFAAAATAKAA[dA]-NH2)
15 | ++ (affinity greater than 1.0) | ++ (affinity greater than 1.0) | ++ (affinity greater than 1.0) | CC(C)C[C@H](NC(=O)[C@@H](NC(=O)[C@H](C)NC(=O)[C@H](C)NC(=O)[C@H](CCCCN)NC(=O)[C@H](C)NC(=O)[C@H](Cc1ccccc1)NC(=O)[C@H](C)NC(=O)[C@@H](C)N)[C@@H](C)O)C(=O)N[C@@H](CCCCN)C(=O)N[C@@H](C)C(=O)N[C@@H](C)C(=O)N[C@H](C)C(N)=O (H-[dA]AFAKAATLKAA[dA]-NH2)
16 | + (0.51 to 1.0) | ++ (affinity greater than 1.0) | ++ (affinity greater than 1.0) | CC(=O)N[C@H](C)C(=O)N[C@@H](C)C(=O)N[C@@H](CC1CCCCC1)C(=O)N[C@@H](C)C(=O)N[C@@H](C)C(=O)N[C@@H](C)C(=O)N[C@@H](CCCCN)C(=O)N[C@H](C(=O)N[C@@H](C)C(=O)N[C@@H](C)C(=O)N[C@@H](C)C(=O)N[C@@H](C)C(=O)N[C@H](C)C(N)=O)[C@@H](C)O [Ac-aAXAAAKTAAAAa-NH2]
